Positions of bridges follow the written chain, without caps; N, C: chain ends. Chains are numbered I, II in the order given. No end group written: not given here.

Data set [1] relates to serum cytokines and chemokines. The note with it: mouse, in vivo. As for the experimental part: To determine whether the responses in serum proteins would be different in tumor-bearing mice from those in healthy mice, sera were collected from female mice in which breast cancer 4T1 cells had been implanted. After the tumors had grown over a period of 10 to 12 days to a size of ˜500 mm^3, tetravalent svL4 was injected subcutaneously at doses of 0.1 and 1.0 nmol/g. Blood was withdrawn and sera prepared 4 hours after injection. The sera of untreated animals had low levels of cytokines and chemokines at 4 h. With a few proteins, such as IL-1β, IL-2, IL-6 and TNFα, the values were very low in untreated animals and upon treatment with svL4 were increased but still nearly undetectable on the array blots. […] Several cytokines that increased but were still low in amount included GM-CSF, CCL4, IGFBP-1, IL-21, lymphotoxin-α, and IL-17. Major proteins included CCL1, CCL8, CCL28, Endostatin, Fas, HVEM, IL-11, IL-12p70, IL-16, IL-27, IL-28, MIP-2, MMP-9, NOV, Soggy-1, SPARC, TIMP-2, TLR2 and VEGF-B. In some cases, the higher dose caused a higher amount of the protein, whereas with several proteins the amount was lower with the higher dose. […] A number of soluble proteins were identified as cell-surface receptors, such as Fas, HVEM and TLR2, which indicated significant shedding by activated cells. […]

For data set [2] the following is noted: in vivo. From the text: (§1) It is important to note that during and after drug administration there was no change in mouse weight or behavior, indicating no overt toxicity related to treatment.
On the set-up of data set [3]: species or system mice.
Excerpt: as §1

Take “I: VQATQSNQHTPRGGGSKK-NH2 / II: VQATQSNQHTPRGGGSK / III: VQATQSNQHTPRGGGS / IV: VQATQSNQHTPRGGGS (amide I:17-IV:C, I:18-II:C, II:17-III:C) [svL4, [(VQATQSNQHTPRGGGS)2K]2K—NH2]”: the “pattern typical of a toxic "cytokine storm"” value in data set [1] is given as “did not occur”. For the same substance, in data set [2], the “change in mouse weight or behavior (overt toxicity)” value is given as “no change”. For the same substance, the “irritation or formation of fibrous or granulomatous tissue at injection region” value in data set [2] (mouse) was “no apparent irritation”. For the same substance, the “binding of peptides to sera (antigenicity)” value in data set [3] is given as “negative”.
